Test results: patent US20170218397A1, “C[…] GENE THERAPY VECTOR FOR […] CELL MO[…] ANTI HIV GENE THERAPY” (Texas Tech University System, priority 2014, published 2017)

How the values were obtained:
HIV = experiment: Viability, HIV replication and cytopathic effect in transduced T cells infected with HIV with GCV; type: cell-based
From the text: FIG. 10 depicts photographic images of cells in accordance with experimental embodiments.

[1] = herpes (CMV) treatment in HIV infected patients; cited from earlier work

Compound: Nc1nc(O)c2ncn(COC(CO)CO)c2n1 [Ganciclovir]
- viability of transduced T cells infected with HIV (HIV): increased viability
- HIV replication (HIV; in the presence of GCV): diminished HIV replication
- toxicity or side effects [1]: without significant toxicity or side effects
